≈ marks a conversion by molar mass, not a printed value. Entries after “also recorded” stand apart in the source; their conditions may differ.
Tests used:
Assay type in all cases: physicochemical
[1] = Suspension stability at 25° C.; details: for physical form of residual solids (XRPD): 0.5% MC (400 cP)+2% Vitamin E TPGS; for Chiral purity / Purity / Solubility / pH / Chiral purity (solids) / Chiral purity, liquid / Chiral purity, solid: 25° C.
Procedure: Suspension stability: Suspension stability of I-1 Form A and the 2 salt candidates was investigated in pure water, 0.5% (w/w) Tween 80 aqueous solution and 0.5% (w/w) MC (400 cP)+2% (w/w) Vitamin E TPGS aqueous solution at 25° C. for 2 h and 24 h. Target concentration was 2 mg/mL.
To confirm whether racemization occurs for the 2 salts in 0.5% (w/w) MC (400 cP)+2% (w/w) Vitamin E TPGS aqueous solution, the suspension stability in this vehicle was repeated at target concentration of 10 mg/mL. […] The hygroscopicity of these salts were further investigated.
Accurate 10 mg of I-1 Form A, 12.83 mg of I-3 Form A, 11.58 mg of I-4 Form A was weighed into a 8 mL glass vial, respectively. 5 mL of suspension vehicle was added, respectively. The salt amount used is equivalent to 10 mg anhydrous free form. These suspensions were stirred at 25° C. with 400 rpm. These suspensions were taken out at 2 hours and 24 hours, then centrifuged at 14,000 rpm for 5 min. The supernatants were analyzed by HPLC and pH meter. Solids obtained (wet cakes) were characterized by XRPD and HPLC to determine the chiral purity.
Accurate […] of I-3 Form A, 46.3 mg of I-4 Form A was weighed into a 8 mL glass vial, respectively. 4 mL of solubility medium was added, respectively. The salt amount used is equivalent to 40 mg anhydrous free form. 4 mL of the aqueous vehicle (0.5% (w/w) MC (400 cP) and 2% (w/w) Vitamin E TPGS in water) was added, respectively. These suspensions were stirred at 25° C. with 400 rpm. These suspensions were taken out at 2 hours and 24 hours, then centrifuged at 14,000 rpm for 5 min. The supernatants were analyzed by HPLC for the solubility and chiral purity and analyzed by pH meter. Solids obtained (wet cakes) were characterized by XRPD and HPLC for chiral purity.

[2] = Bulk stability (1 week); parameters: key to CL (color): A: No change of color; B: Slight discoloration; C: Medium discoloration; D: Strong discoloration; DC: complete decomposition; details: for CL (color) / Bulk (HPLC) chiral purity / Bulk (HPLC) purity / Bulk (XRPD): Solid state
Procedure: Bulk stability of I-1 Form A and the 2 salt candidates was investigated at 25° C./92% RH in an open container, at 40° C./75% RH in an open container and at 60° C. in a tight container over 1 week. […] All the 3 salts show no obvious racemization based on chiral purity results.
I-1 Form A and the 2 salts were placed at 25° C./92% RH in an open container, at 40° C./75% RH in an open container and at 60° C. in a closed container for I week. Samples after I week were characterized by XRPD and HPLC and inspected for color change.

[3] = Solubility study at 37° C. (buffer, water, bio-relevant media, MeOH/DCM)
Procedure: In addition, residual solids were checked by chiral HPLC to confirm whether racemization occurs.
Accurate 4 mg of I-1 Form A, 5.13 mg of I-3 Form A, 4.63 mg of I-4 Form A was weighed into a 8 mL glass vial, respectively. 2 mL of solubility medium was added. The salt amount used is equivalent to 4 mg anhydrous free form. Obtained suspensions/solutions were stirred at 37° C. at 400 rpm for 2 hours and 24 hours and then centrifuged at 37° C. at 14,000 rpm for 5 min. Supernatants were analyzed by UPLC and PH meter for solubility and pH value, respectively. Residual solids (wet cakes) were characterized by XRPD to determine physical form and then analyzed by HPLC for chiral purity.

[4] = 2 mg/mL, 0.5%(w/w) MC(400 cP) and 2%(w/w) Vitamin E TPGS in water, 2 h, listed as I-3 Form A
[5] = 2 mg/mL, 0.5%(w/w) MC(400 cP) and 2%(w/w) Vitamin E TPGS in water, 24 h, listed as I-3 Form A
[6] = 2 mg/mL, 0.5%(w/w) Tween 80 in water, 2 h, listed as I-3 Form A
[7] = 2 mg/mL, 0.5%(w/w) Tween 80 in water, 24 h, listed as I-3 Form A
[8] = 2 mg/mL, Pure water, 2 h, listed as I-3 Form A
[9] = 2 mg/mL, Pure water, 24 h, listed as I-3 Form A
[10] = 10 mg/mL, 0.5(w/w) MC(400 cP) and 2%(w/w) Vitamin E TPGS in water, 2 h, listed as I-3 Form A
[11] = 10 mg/mL, 0.5(w/w) MC(400 cP) and 2%(w/w) Vitamin E TPGS in water, 24 h, listed as I-3 Form A
[12] = Salt candidates risk matrix (summary)
[13] = 25° C./92% RH, open container, 1 week, listed as I-3 Form A
[14] = 40° C./75% RH, open container, 1 week, listed as I-3 Form A
[15] = 60° C., tight container, 1 week
[16] = 60° C., tight container, 1 week, listed as I-3 Form A
[17] = before storage, listed as I-3 Form A
[18] = FaSSIF-V1, pH 6.5, 2 hours, listed as I-3 Form A
[19] = FaSSIF-V1, pH 6.5, 24 hours, listed as I-3 Form A
[20] = FeSSIF-V1, pH 5.0, 2 hours, listed as I-3 Form A
[21] = FeSSIF-V1, pH 5.0, 24 hours, listed as I-3 Form A
[22] = SGF, pH 2.0, 24 hours, listed as I-3 Form A
[23] = Water, 24 hours, listed as I-3 Form A
[24] = pH 2, HCl, 24 hours, listed as I-3 Form A

N#Cc1c(-c2cc(NC(=O)c3cc(F)cc(C(F)(F)F)c3)c3c(c2)C(=O)N[C@H]3c2cc(F)ccc2Cl)ccc2ncnn12 [Compound I-3]
physical form of residual solids (XRPD) ([1]; 10 mg/mL, 2 h sample, listed as I-3 Form A): converted to a hydrate (I-3 Form B) | physical form of residual solids (XRPD) ([1]; 10 mg/mL, 2 h sample, listed as tosylate salt): a form change | physical form of residual solids (XRPD) ([1]; 10 mg/mL, 24 h sample): remained unchanged | Chiral purity [1, 4]: 86.4% | Purity [1, 4]: 99.3% | Solubility [1, 4]: 1220.9 µg/mL (≈ 2010 µM) | pH [1, 4]: 2.76 | Chiral purity [1, 5]: 98.3% | Purity [1, 5]: 99.3% | Solubility [1, 5]: 1990.7 µg/mL (≈ 3270 µM) | pH [1, 5]: 2.62 | Chiral purity [1, 6]: 95.8% | Chiral purity (solids) [1, 6]: 98.0% | Purity [1, 6]: 99.4% | Solubility [1, 6]: 244.6 µg/mL (≈ 402 µM) | pH [1, 6]: 3.11 | Chiral purity [1, 7]: 98.5% | Chiral purity (solids) [1, 7]: 94.2% | Purity [1, 7]: 99.4% | Solubility [1, 7]: 17.9 µg/mL (≈ 29.4 µM) | pH [1, 7]: 2.63 | Chiral purity (solids) [1, 8]: 98.3% | Purity [1, 8]: 99.6% | pH [1, 8]: 5.59 | Chiral purity (solids) [1, 9]: 98.3% | Purity [1, 9]: 99.5% | pH [1, 9]: 2.85 | Chiral purity, liquid [1, 10]: 99.4%; | Chiral purity, solid [1, 10]: 97.9% | Solubility [1, 10]: 3433.2 µg/mL (≈ 5640 µM) | pH [1, 10]: 2.30 | Chiral purity, liquid [1, 11]: 99.4%; | Chiral purity, solid [1, 11]: 98.3% | Purity [1, 11]: 99.7% | Solubility [1, 11]: 3083.9 µg/mL (≈ 5060 µM) | pH [1, 11]: 2.17 | Initial chiral purity ([1]; before suspension, listed as I-3 Form A): Initial chiral purity: 98.6% | bulk stability (chemical and physical) ([2]; 25° C./92% RH open, 40° C./75% RH open, 60° C. tight container, 1 week, listed as I-3 Form A): chemically and physically stable; also recorded: chemically stable and shows no XRPD change; also recorded: good chemical and physical bulk stability | Chemical stability [2, 12]: Stable | Physical stability [2, 12]: Stable | CL (color) ([2]; 25° C./92% RH, open container, 1 week): A | Bulk (HPLC) chiral purity [2, 13]: 98.3% | Bulk (HPLC) purity [2, 13]: 99.4%/ | Bulk (XRPD) [2, 13]: No form change* | CL (color) ([2]; 40° C./75% RH, open container, 1 week): A | Bulk (HPLC) chiral purity [2, 14]: 98.5% | Bulk (HPLC) purity [2, 14]: 99.3%/ | Bulk (XRPD) [2, 14]: No form change* | Bulk (XRPD) [2, 15]: No form change | CL (color) [2, 15]: A | Bulk (HPLC) chiral purity [2, 16]: 98.3% | Bulk (HPLC) purity [2, 16]: 99.5%/ | Chiral purity (initial) [2, 17]: 98.6% | Initial purity by HPLC [2, 17]: 99.5% | Chiral purity [3, 18]: purity: 96.1%) | Solubility [3, 18]: 52.2 μg/mL (chiral | Chiral purity (solids) [3, 19]: 98.4%) | Solubility [3, 19]: 0.7 µg/mL (≈ 1.15 µM) | pH of supernatant [3, 19]: 6.17 | Chiral purity [3, 20]: purity: 97.1%) | Solubility [3, 20]: 176.1 μg/mL(chiral | Chiral purity (solids) [3, 21]: 66.4%) | Solubility [3, 21]: 19.0 µg/mL (≈ 31.2 µM) | pH of supernatant [3, 21]: 4.86 | Solubility ([3]; MeOH/DCM (1:2, v/v), 2 hours, listed as I-3 Form A): >75000 µg/mL | Solubility ([3]; MeOH/DCM (1:2, v/v), 24 hours, listed as I-3 Form A): >75000 µg/mL | Solubility ([3]; SGF, pH 2.0, 2 hours, listed as I-3 Form A): 4.2 µg/mL (≈ 6.9 µM) | Chiral purity (solids) [3, 22]: 98.3%) | Solubility [3, 22]: 1.3 µg/mL (≈ 2.13 µM) | pH of supernatant [3, 22]: 1.92 | Solubility ([3]; Water, 2 hours, LOQ: 0.5 μg/mL): <LOQ | Solubility ([3]; Water, 24 hours, LOQ: 0.5 μg/mL): LOQ | Chiral purity (solids) [3, 23]: 98.3%) | pH of supernatant [3, 23]: 2.54 | solubility in MeOH/DCM (1:2, v/v) ([3]; listed as I-3 Form A): > 75000 µg/mL | Solubility ([3]; pH 2, HCl, 2 hours, LOQ: 0.5 μg/mL): <LOQ | Solubility ([3]; pH 2, HCl, 24 hours, LOQ: 0.5 μg/mL): LOQ | Chiral purity (solids) [3, 24]: 98.3%) | pH of supernatant [3, 24]: 1.86
